Assay results published in patent publication US20040058903A1, “Benzamide compounds as apo b secretion inhibitors” (priority 2000, published 2004).

Columns and labels:
[1] = system: ddY-mice; assay: Lipids lowering effect on ddY-mice; type: in vivo; conditions: male ddY-mice, oral dose 32 mg/kg, 2 hr after administration, percent relative to baseline (0 hr); for Cholesterol (% of 0 hr) 2 hr: plasma total-cholesterol; for Triglyceride (% of 0 hr) 2 hr: plasma triglyceride
Description: Test 2: Lipids Lowering Effect on ddY-Mice
Male ddy-mice were housed in temperature- and humidity-controlled rooms and fed with laboratory chow. The animals were randomized according to their body weight and deprived of food just before the experiment. A blood sample (baseline blood sample) was collected from the retro orbital venous plexus before administration of the test drug, and then the animals were orally dosed with the test drug in a vehicle (aqueous solution of 0.5% methylcellulose). Blood samples were drawn at 2 hours after drug administration for the measurement of cholesterol and triglyceride.
Plasma total-cholesterol and plasma triglyceride were determined by conventional enzyme-methods using commercially available kits. The cholesterol CII-Test Wako (Wako Pure Chemical Industries, Ltd.) was used for the measurement of cholesterol, and the triglyceride E-test Wako (Wako Pure Chemical Industries, Ltd.) was used for the measurement of triglyceride.
Lipids lowering effects were shown in percent relative to the baseline level (level at 0 hr).

[2] = system: Apo B secretion; assay: Measurement of inhibition of Apo B secretion (HepG2 cells, ELISA); type: cell-based; conditions: 15-hour incubation, 0.1% DMSO treated cells as controls; for inhibition at 1 µM: Homo sapiens, 10^−6 M
Method: Test 1: Measurement of Inhibition of Apo B Secretion
HepG2 cells were seeded in Eagles medium containing 10% fetal calf serum (FCS) at a density of 30000 cells/well in 96-well plates and allowed to grow for 3 days before treatment. At this time, the medium was replaced with fresh medium containing 0.1% dimethyl sulfoxide (DMSO) and the indicated concentrations of a test compound. After 15-hour incubation, the amount of Apo B and Apo AI accumulated in the media was determined by ELISA.
The assay was carried out at room temperature. A flat bottomed micro ELISA plate (manufactured by Nunc) was coated with an anti Apo B monoclonal antibody solution ([…] in 0.05% carbonate buffer, pH 9.6) by adding the antibody solution at a volume of 100 μl per well. After 1-hour incubation on a plate mixer, the unbound materials were removed by washing the well 3 times with a washing buffer (phosphate buffered saline, pH 7.2 containing 0.1% bovine serum albumin and 0.05% Tween-20). Then 20 μl of […] and 100 μl of a solution of peroxidase coupled anti Apo B antibody were added. After 1-hour incubation on a plate mixer, washing was performed 3 times to remove the unbound materials. A freshly prepared substrate solution (2.5 mg/ml ortho-phenylene diamine and 0.018% H2Oz in 0.11 M Na2HPO4-0.044 M sodium citrate buffer, pH 5.4) at a volume of 200 μl was then added to each well. After 20-minute incubation, the enzyme reaction was terminated by adding 50 μl of 0.5 M sulfuric acid. Absorbance of each well was determined at 490 nm using a microplate reader. Apo B concentration was calculated from a standard curve generated from purified Apo B standard that was run in parallel in the same plate. Inhibition of Apo B secretion by the test compound is calculated taking […] treated cells as controls.
Measurement of Apo AI was performed similar to that of Apo B, except for diluting the sample 11-fold with a dilution buffer (phosphate buffered saline, pH 7.2 containing 0.5% bovine serum albumin and 0.05% Tween-20). […]

SMILES	Cholesterol (% of 0 hr) 2 hr [1]	Triglyceride (% of 0 hr) 2 hr [1]	inhibition at 1 µM [2] [%]	Inhibition of Apo B secretion at 10^−6 M (%) [2] [%]
O=C(Nc1ccc(CCCc2ccccn2)cc1)c1ccccc1-c1ccc(C(F)(F)F)cc1 [Example 25, N-{4-[3-(2-pyridinyl)propyl]phenyl}-4′-(trifluoromethyl)-1,1′-biphenyl-2-carboxamide]	78 % of 0 hr	23 % of 0 hr		
Nc1cccc(CCCc2ccc(NC(=O)c3ccccc3-c3ccc(C(F)(F)F)cc3)cc2)n1 [Example 44, N-{4-[3-(6-amino-2-pyridinyl)propyl]phenyl}-4′-(trifluoromethyl)-1,1′-biphenyl-2-carboxamide]			100	
O=C(Nc1ccc(NCCc2ccccn2)cc1)c1ccccc1-c1ccc(C(F)(F)F)cc1 [Example 59, N-(4-{[2-(2-pyridinyl)ethyl]amino}phenyl)-4′-(trifluoromethyl)-1,1′-biphenyl-2-carboxamide]	77 % of 0 hr	15 % of 0 hr		
O=C(Nc1ccc(NCCc2ccccn2)cc1)c1ccccc1Nc1cccc(C(F)(F)F)c1 [Example 64, N-(4-{[2-(2-pyridinyl)ethyl]amino}phenyl)-2-[3-(trifluoromethyl)-anilino]benzamide]			100	
O=C(Cc1ccccn1)Nc1ccc(NC(=O)c2ccccc2-c2ccc(C(F)(F)F)cc2)cc1 [Example 65, N-{4-[(2-pyridinylacetyl)amino]phenyl]-4′-(trifluoromethyl)-1,1′-biphenyl-2-carboxamide]	83 % of 0 hr	36 % of 0 hr		92.2
